Measured values as given in patent EP2923697B1, “Extract and novel isolated compound from Aspergillus terreus for treatment of mouth microbial infections” (King Saud University, priority 2014, dated 2015).
≈ marks a conversion by molar mass, not a printed value. Where “and” joins values, the source holds several entries; their conditions need not be identical. Equal entries are not always repeated.

Experiments:
[1] = test system: Candida albicans; assay: Antimicrobial activity, well diffusion method; type: cell-based; conditions: 5mg/ml of sample around well (6 mm), mean ± Standard deviation
Source text: (§1) Mouth microbial representatives including unicellular fungi; Candida albicans (RCMB 05382), Candida glabrata (RCMBA 05386), Candida parapsilosis (RCMBA 06002), Candida tropicalis (RCMB 05384), Gram-positive bacteria; Lactobacillus acidophilus (RCMBA 4267), Streptococcus gordonii (RCMBA 2004), Streptococcus mutans (RCMBA 4131), and Gram-negative bacteria; Pseudomonas aeruginosa (RCMBA 1002) were obtained from the Regional Center for Mycology and Biotechnology (RCMB), Al-Azhar University, Cairo, Egypt, as test organisms. Antimicrobial activity was determined by the well diffusion method. Petri plates contained 20 ml of Nutrient (for bacteria) or Malt extract (for fungi). Agar medium were seeded with 1-3 day cultures of microbial inoculums (1-2 X 10^7 CFU/ml). […] The assessment of antimicrobial activity was based on measurement of the diameter of the inhibition zone formed around the well.

[2] = test system: Candida glabrata; assay: Antimicrobial activity, well diffusion method; type: cell-based; conditions: 5mg/ml of sample around well (6 mm), mean ± Standard deviation
Source text: as §1

[3] = test system: Candida parapsilosis; assay: Antimicrobial activity, well diffusion method; type: cell-based; conditions: 5mg/ml of sample around well (6 mm), mean ± Standard deviation
Source text: as §1

[4] = test system: Candida tropicalis; assay: Antimicrobial activity, well diffusion method; type: cell-based; conditions: 5mg/ml of sample around well (6 mm), mean ± Standard deviation
Source text: as §1

[5] = test system: Lactobacillus acidophilus; assay: Antimicrobial activity, well diffusion method; type: cell-based; conditions: 5mg/ml of sample around well (6 mm), mean ± Standard deviation
Source text: as §1

[6] = test system: Pseudomonas aeruginosa; assay: Antimicrobial activity, well diffusion method; type: cell-based; conditions: 5mg/ml of sample around well (6 mm), mean ± Standard deviation
Source text: as §1

[7] = test system: Streptococcus gordonii; assay: Antimicrobial activity, well diffusion method; type: cell-based; conditions: 5mg/ml of sample around well (6 mm), mean ± Standard deviation
Source text: as §1

[8] = test system: Streptococcus mutans; assay: Antimicrobial activity, well diffusion method; type: cell-based; conditions: 5mg/ml of sample around well (6 mm), mean ± Standard deviation
Source text: as §1

[9] = test system: Candida albicans; assay: MIC determination, micro-dilution method; type: cell-based; conditions: read-out: Minimum Inhibitory Concentration
Source text: (§2) Mouth microbial representatives including unicellular fungi; Candida albicans (RCMB 05382), Candida glabrata (RCMBA 05386), Candida parapsilosis (RCMBA 06002), Candida tropicalis (RCMB 05384), Gram-positive bacteria; Lactobacillus acidophilus (RCMBA 4267), Streptococcus gordonii (RCMBA 2004), Streptococcus mutans (RCMBA 4131), and Gram-negative bacteria; Pseudomonas aeruginosa (RCMBA 1002) were obtained from the Regional Center for Mycology and Biotechnology (RCMB), Al-Azhar University, Cairo, Egypt, as test organisms.
(§3) The minimum inhibitory concentration (MIC) was determined by micro-dilution method using serially diluted (2 folds) extract and isolated compound. MIC of the extract was determined by dilution of extract and isolated compound of concentrations of 0.0-1000 µg/ml. Equal volume of each extract and nutrient broth were mixed in a test tube. Specifically 0.1 ml of standardized inoculum (1-2 X 10^7 CFU/ml) was added in each tube. The tubes were incubated at 37°C for 24-48 h. Two control tubes containing the growth medium, saline and the inoculum were maintained for each test batch. The lowest concentration (highest dilution) of the extract that produced no visible microbial growth (no turbidity) when compared with the control tubes were regarded as MIC.

[10] = test system: Candida glabrata; assay: MIC determination, micro-dilution method; type: cell-based
Source text: as §2, §3

[11] = test system: Candida parapsilosis; assay: MIC determination, micro-dilution method; type: cell-based; conditions: Lodderomyces parapsilosis, read-out: Minimum Inhibitory Concentration
Source text: as §2, §3

[12] = test system: Candida tropicalis; assay: MIC determination, micro-dilution method; type: cell-based; conditions: for MIC: read-out: Minimum Inhibitory Concentration
Source text: as §2, §3

[13] = test system: Lactobacillus acidophilus; assay: MIC determination, micro-dilution method; type: cell-based
Source text: as §2, §3

[14] = test system: Pseudomonas aeruginosa; assay: MIC determination, micro-dilution method; type: cell-based; conditions: read-out: Minimum Inhibitory Concentration
Source text: as §2, §3

[15] = test system: Streptococcus gordonii; assay: MIC determination, micro-dilution method; type: cell-based; conditions: read-out: Minimum Inhibitory Concentration
Source text: as §2, §3

[16] = test system: Streptococcus mutans; assay: MIC determination, micro-dilution method; type: cell-based; conditions: read-out: Minimum Inhibitory Concentration
Source text: as §2, §3

[17] = test system: Candida albicans; assay: In-vitro activity in combination with Coe-Comfort tissue conditioner, CFU count; type: cell-based; conditions: for concentration giving total growth inhibition: C. albicans, in combination with Coe-comfort tissue conditioner; for No. colony-forming units (CPU): Candida albicans, mixed with Coe-Comfort
Protocol: The Coe-Comfort tissue conditioner was mixed according to the proportions indicated by the manufacturers. In detail, Coe-comfort™ tissue conditioner is formed by dispensing 5 ml of Coe-comfort liquid into a disposable mixing cup. The red measure level is filled with about 6 g of Coe-comfort powder and is then slowly added to the liquid. The obtained mixture is blended for 30 seconds and setted aside for approximately one minute until it flows sluggishly from a spatula. Using less liquid gives a thicker, faster setting mix and vice versa. […] The extract and isolated compound/conditioner mixture was homogenized in a sterile glass beaker for 30 seconds. Immediately afterwards, the conditioning powder was added and mixed for 40 seconds and then poured onto a Petri plate. Once the mixture solidified, the surface was covered with 4 ml of Sabouraud agar, and after 30 minutes, inoculated with 20 µl of an appropriate dilution of Candida. The plates were incubated at 37°C for 24 hours and then the CFUs were counted. The experiment was performed in triplicate. For the conditioner Coe-Comfort, the control was unmodified conditioner.

[18] = test system: Lactobacillus acidophilus; assay: as above; type: cell-based; conditions: for No. colony-forming units (CFU): mixed with Coe-Comfort
[19] = test system: Streptococcus gordonii; assay: In-vitro activity in combination with Coe-Comfort tissue conditioner; type: cell-based
[20] = test system: S. mutans; assay: as above; type: cell-based, Streptococcus mutans
[21] = Sub-chronic toxicity, liver and kidney function; type: in vivo, Male Wister rats; conditions: rats; oral daily for 15 days; extract 500 mg/kg, isolated compound 50 mg/kg; serum 6 hr after the last dose
Protocol: Male Wister rats (150-180 g) were divided into 3 equal groups each of 10 rats. Rats of the 1st group received the vehicle in a dose of 5 mL/kg and left as normal control. Rats of the 2nd and 3rd groups were administered the ethanolic extract of the investigated fungi (500 mg/kg) and the isolated compound (50 mg/kg). All medications were administered orally daily for 15 consecutive days. Animals were maintained under identical conditions with food and water ad libitum for the entire period with close observation. At the end of the experimental period, blood samples were collected from the orbital plexus of rats, 6 hr after the last dose. Samples were left to clot at room temperature for 20 min. The obtained sera were collected and used to determine the activity of AST and ALT. Levels of urea and creatinine were also estimated.

Compound: C/C=C(/C)C1CCC2C(C1)CC(C)C1C2C=C(C)C2C3CC(C=C(C)C)CC3C(O)CC21 (stereo not drawn) [Isolated compound, 9-((Z)-but-2-en-2-yl)-2,3,3a,4,5,5a;5b,6,7,7a,8,9,10,11,11a,11b,13a,13b-octadecahydro-6,13-dimethyl-2-(2-methylprop-1-enyl)-1H-cyclopenta[a]chrysen-4-ol]
- Diameter of inhibition zone [1]: 19.3 ± 0.63 mm
- Diameter of inhibition zone [2]: 00.0 mm
- Diameter of inhibition zone [3]: 21.3 ± 0.58 mm
- Diameter of inhibition zone [4]: 22.4 ± 0.58 mm
- Diameter of inhibition zone [5]: 23.9 ± 0.37 mm
- Diameter of inhibition zone [6]: 18.2± 0.63 mm
- Diameter of inhibition zone [7]: 20.3 ± 0.72 mm
- Diameter of inhibition zone [8]: 22.1± 0.72 mm
- MIC [9]: 7.81 mg/L (≈ 17.9 µM)
- Minimum Inhibitory Concentration ([10]; Candida glabrata): 000.00 µg/mL
- MIC [11]: 1.95 mg/L (≈ 4.47 µM)
- Minimum Inhibitory Concentration [12]: 000.49 µg/mL
- MIC [12]: 0.49 mg/L (≈ 1.12 µM)
- Minimum Inhibitory Concentration [13]: 000.24 µg/mL
- MIC ([13]; read-out: Minimum Inhibitory Concentration): 0.24 mg/L (≈ 0.55 µM)
- MIC [14]: 15.6 mg/L (≈ 35.8 µM)
- MIC [15]: 3.9 mg/L (≈ 8.93 µM)
- MIC [16]: 0.98 mg/L (≈ 2.24 µM)
- concentration giving total growth inhibition [17]: 7.81 µg/mL
- No. colony-forming units (CPU) ([17]; concentration 000.24 µg/ml): 9.1 x 10^4
- No. colony-forming units (CPU) ([17]; concentration 000.49 µg/ml): 5.2 x 10^4
- No. colony-forming units (CPU) ([17]; concentration 000.98 µg/ml): 6.3 x 10^3
- No. colony-forming units (CPU) ([17]; concentration 001.95 µg/ml): 1.0 x 10^3
- No. colony-forming units (CPU) ([17]; concentration 003.90 µg/ml): 2.3 x 10^2
- No. colony-forming units (CPU) ([17]; concentration 007.81 µg/ml): 00.00
- No. colony-forming units (CPU) ([17]; concentration 015.63 µg/ml): 00.00
- No. colony-forming units (CPU) ([17]; concentration 031.25 µg/ml): 00.00
- No. colony-forming units (CPU) ([17]; concentration 062.50 µg/ml): 00.00
- concentration giving total growth inhibition ([18]; in combination with Coe-comfort tissue conditioner): 7.81 µg/mL
- No. colony-forming units (CFU) ([18]; concentration 000.24 µg/ml): 8.2 x 10^5
- No. colony-forming units (CFU) ([18]; concentration 000.49 µg/ml): 9.7 x 10^4
- No. colony-forming units (CFU) ([18]; concentration 000.98 µg/ml): 4.8 x 10^4
- No. colony-forming units (CFU) ([18]; concentration 001.95 µg/ml): 3.4 x 10^3
- No. colony-forming units (CFU) ([18]; concentration 003.90 µg/ml): 4.1 x10^2
- No. colony-forming units (CFU) ([18]; concentration 007.81 µg/ml): 00.00
- No. colony-forming units (CFU) ([18]; concentration 015.63 µg/ml): 00.00
- No. colony-forming units (CFU) ([18]; concentration 031.25 µg/ml): 00.00
- No. colony-forming units (CFU) ([18]; concentration 062.50 µg/ml): 00.00
- concentration giving total growth inhibition [19]: 62.50 µg/mL and 62.5 µg/mL
- concentration giving total growth inhibition [20]: 125 µg/mL
- effect on the activity of alanine aminotransferase (ALT) [21]: did not show any significant effect
- effect on the activity of aspirate aminotransferase (AST) [21]: did not show any significant effect
- effect on the levels of blood urea [21]: did not show any significant effect
- effect on the levels of serum creatinine [21]: did not show any significant effect

Compound: C[C@@H]1[C@H](O)[C@@H](C)/C=C/C=C/C=C/C=C/C=C/C=C/C=C/[C@H](O[C@@H]2O[C@H](C)[C@@H](O)[C@H](N)[C@@H]2O)C[C@@H]2O[C@](O)(C[C@@H](O)C[C@@H](O)[C@H](O)CC[C@@H](O)C[C@@H](O)CC(=O)O[C@H]1C)C[C@H](O)[C@H]2C(=O)O [Amphotericin B, reference compound]
- Diameter of inhibition zone [1]: 21.3± 0.14 mm
- Diameter of inhibition zone [2]: 20.4± 0.87 mm
- Diameter of inhibition zone [3]: 23.2 ± 0.53 mm
- Diameter of inhibition zone [4]: 24.6± 0.27 mm
- MIC ([10]; Nakaseomyces glabratus, read-out: Minimum Inhibitory Concentration): 1.95 mg/L (≈ 2.11 µM)
- MIC [11]: 0.49 mg/L (≈ 0.53 µM)
- MIC [12]: 0.12 mg/L (≈ 0.13 µM)
- concentration giving total growth inhibition [17]: 7.81 µg/mL
- No. colony-forming units (CPU) ([17]; concentration 000.49 µg/ml): 9.1 x 10^4
- No. colony-forming units (CPU) ([17]; concentration 000.98 µg/ml): 8.9 x 10^4
- No. colony-forming units (CPU) ([17]; concentration 001.95 µg/ml): 9.3 x 10^3
- No. colony-forming units (CPU) ([17]; concentration 003.90 µg/ml): 8.1 x 10^2
- No. colony-forming units (CPU) ([17]; concentration 007.81 µg/ml): 00.00
- No. colony-forming units (CPU) ([17]; concentration 015.63 µg/ml): 00.00
- No. colony-forming units (CPU) ([17]; concentration 031.25 µg/ml): 00.00
- No. colony-forming units (CPU) ([17]; concentration 062.50 µg/ml): 00.00
